Starred links: 1 amine or outer side, 2 acyl side, 3 side chain; linkers in the order of their positions; H or OH if unused. Positions of bridges follow the written chain, without caps; N, C: chain ends. Non-standard residues stand in square brackets, D forms with d. Residues, ends and D or L forms follow the SMILES beside them. Phe(3R-OH) = O=C([C@@H](N[*:1])[C@H](O[*:3])c1ccccc1)[*:2]; Asn(3S-OH) = NC(=O)[C@@H](O)[C@H](N)C(=O)O; Leu(3R-OH) = CC(C)[C@@H](O)[C@H](N)C(=O)O; aThr = C[C@H](O)[C@H](N)C(=O)O
What was measured:
[1] = tested on: S. aureus; test: resistance development during serial passaging; format: cell-based, Staphylococcus aureus; conditions: serial passaging at sub-MIC concentrations over 33 days
Method: (§1) The appearance of MIC changes during constant exposure of bacteria to sub-MIC concentrations of lysobactin was assessed by serial passaging experiments. On the first day the MICs of S. aureus and S. uberis were assessed by microbroth dilution MIC methodology as described by the Clinical and Laboratory Standards Institute (CLSI). Each day for the following 33 consecutive days, bacteria from the well containing the highest concentrations allowing full growth were collected and used to inoculate new 96-well plates and to assess the MIC during constant exposure to lysobactin. The MIC obtained on each day was plotted over time. Rifampicin, which is known to result in quick changes of the MIC, was used as positive control.

[2] = tested on: Staphylococcus aureus; test: dairy cow udder infection model with S. aureus (example 15); format: in vivo, lactating dairy cows; conditions: for microbiological cure rate: miglyol based suspension, two times; for SCC recovery rate: counts below 200.000 cells per mL
Text: Fifteen healthy lactating dairy cows were experimentally infected with the mastitis pathogen Staphylococcus aureus on all four udder quarters.
Additionally a fourth group of udder quarters received miglyol as negative control. Treatments were randomly assigned to 60 udder quarters in total. Only udder quarters that were bacteriologically positive for the challenge organism immediately prior to treatment (n=49) were eligible for assessment of microbiological and clinical cure. The diseased quarters were treated with these intramammary formulations two times with an interval of 24 hours in between. Udders were clinically examined and milk samples were taken before treatment and several times after that until three weeks after the second administration by study personnel blinded to treatment.
Milk was inspected visually for deviation in its consistency and samples were evaluated for presence of the challenge organism and for somatic cell count to confirm the diagnosis mastitis. Diseased udder quarters were considered microbiologically cured when Staphylococcus aureus found in milk samples shortly before treatment could not be isolated from any milk sample taken within the time period between the third and the twenty-first day after the second treatment. Clinical cure was achieved when the local symptoms of mastitis had completely disappeared, and recovery of somatic cell counts (SCC) as parameter of udder inflammation was attained when all counts remained below 200.000 cells per mL of milk in the period mentioned above.

[3] = tested on: S. uberis; test: resistance development during serial passaging; format: cell-based, Streptococcus uberis; conditions: serial passaging at sub-MIC concentrations over 33 days
Method: as §1

[4] = tested on: Staphylococcus aureus; test: Staphylococcus aureus acute mouse mastitis model; format: in vivo, lactating CD-1 mice
Method: The efficacy of lysobactin (formulated in a hydrogel at pH 4.7) was tested in a Staphylococcus aureus acute mouse mastitis model established at the University of Sherbrooke, Canada (Brouillette et al, Vet. Microbiol. (2004) 4:253-262), that is hereby incorporated by reference. Both the abdominal mammary glands (L4 and R4) of lactating CD-1 mice were intramammarily infected with 100 CFU (colony forming units) of S. aureus. The mice were treated intramammarily with lysobactin four hours after infection. Each treatment group contained at least 3 mice (6 quarters), 14 hours later (18 hours after inoculation) mice were sacrificed, mammary glands were harvested and the CFU content evaluated by plating 10-fold serial dilutions of mammary gland homogenates. The CFU content was expressed as log10 count. The detection limit was 200 CFU/g of gland. Glands with less than 200 CFU/g were regarded as cleared. The efficacy of lysobactin and neomycin trisulfate, either alone or in combination, was tested in a Staphylococcus aureus acute mouse mastitis model established at the University of Sherbrooke, Canada (Brouillette et al, Vet. Microbiol. (2004) 4:253-262), as described in example 5. Samples were formulated in paraffin.

[5] = tested on: Staphylococcus aureus ATCC 29740; test: in vitro kill kinetics of lysobactin alone in milk; format: cell-based; conditions: lysobactin 4-64 μg/mL, at 24 h
Method: (§2) In order to assess the ability of lysobactin to kill bacteria in milk, flasks containing different concentrations of lysobactin in store-bought full-fat milk were inoculated with 1-2×10^6 colony forming units/ml of a representative strain of either Staphyloccus aureus or Streptococcus uberis. The flasks were incubated for 24-48 hours in a shaking water bath at 35+/−2° C., and viable bacterial counts in each flask were determined at several time-points by diluting and plating samples on agar plates. A reduction of the number of viable bacteria in the initial inoculum by at least 99.9% is defined as bactericidal activity.
(§3) The kill kinetics of lysobactin against Staphylococcus aureus ATCC 29740 and Streptococcus uberis ATCC 27958 in milk were determined for concentrations of lysobactin of 4, 8, 16, 32 and 64 μg/mL. Results are depicted in FIG. 1 (CFU: colony forming units). A cidality at 24 h and 48 h, respectively, can be postulated for S. aureus and S. uberis.

[6] = tested on: Streptococcus uberis ATCC 27958; test: in vitro kill kinetics of lysobactin alone in milk; format: cell-based; conditions: lysobactin 4-64 μg/mL, at 48 h
Method: as §2, §3

[7] = tested on: Streptococcus uberis (ATCC 27958); test: acute mouse mastitis model with S. uberis (example 14); format: in vivo, lactating CD-1 mice; conditions: paraffin formulation, 18 h after infection
Method: Twenty-three lactating CD-1 mice were experimentally infected 10-15 days after birth of the offspring with the mastitis pathogen Streptococcus uberis (ATCC 27958) on the left and right fourth mammary gland. Four hours after infection the animals were treated intrammarily with the test items. The study comprised four treatment groups with four mice each and a control group with seven mice. The mice of the treatment groups received paraffin formulations of lysobactin at 15 μg/gland or neomycin trisulfate at 1600 μg/gland, or two combinations of both with lysobactin at 15 μg plus neomycin trisulfate at 800 μg or 1600 μg per gland. Eighteen hours after infection the mice were killed and the mammary glands were removed and bacterial CFU were evaluated microbiologically.

[8] = tested on: E. coli P4:032; test: in vitro kill kinetics of combinations in milk (synergy); format: cell-based; conditions: after 8 h, 32 μg/ml neomycin alone
Method: The flasks were incubated for 24-48 hours in a shaking water bath at 35+/−2° C., and viable bacterial counts in each flask were determined at several time-points by diluting and plating samples on agar plates.
The kill kinetics of lysobactin and neomycin, either alone or in combination, against E. coli P4:032 in milk were determined for concentration ratio of lysobactin:neomycin of […] (256 μg/ml lysobactin and 32 μg/ml neomycin).

[9] = Day 3 after second treatment, lysobactin 50 mg
[10] = Day 21 after second treatment, lysobactin 50 mg
[11] = Day 3 after second treatment, neomycin trisulfate 400 mg
[12] = Day 21 after second treatment, neomycin trisulfate 400 mg

**Q.** With CC[C@H](C)[C@@H]1NC(=O)[C@@H](CCCNC(=N)N)NC(=O)[C@H](CC(C)C)NC(=O)[C@H]([C@H](O)C(C)C)NC(=O)[C@@H](NC(=O)[C@H](CC(C)C)NC(=O)[C@H](N)CC(C)C)[C@@H](c2ccccc2)OC(=O)[C@H](CO)NC(=O)[C@H]([C@H](O)C(N)=O)NC(=O)CNC(=O)[C@H]([C@H](C)O)NC1=O [lysobactin] (H-[dL]L[Phe(3R-OH)][Leu(3R-OH)]L[dR]I[aThr]G[Asn(3S-OH)]S; ester 3-C) as the compound, how does the “MIC change during constant exposure” value [1] read?
**A.** Its value is “remain constant”.

**Q.** And the “local clinical cure rate” value [2, 9]?
**A.** Its value is 71%.

**Q.** And the microbiological cure rate [2, 9]?
**A.** Its microbiological cure rate is 71%.

**Q.** What about the SCC recovery rate [2, 9] of the same compound?
**A.** The SCC recovery rate was 35%.

**Q.** And the “local clinical cure rate” value [2, 10]?
**A.** The value was 71%.

**Q.** And the microbiological cure rate [2, 10]?
**A.** Its microbiological cure rate is 14%.

**Q.** What about the SCC recovery rate [2, 10] of the same compound?
**A.** The SCC recovery rate was 36%.

**Q.** What about the “MIC change during constant exposure” value [3] of the same compound?
**A.** Its value is “remain constant”.

**Q.** And the “reduction of median CFU content” value ([4]; 50 μg lysobactin intramammary, formulated in paraffin)?
**A.** The value was “ca. 2.7 log10”.

**Q.** And the “reduction of median CFU content” value ([4]; 50 μg lysobactin intramammary, hydrogel pH 4.7, 4 h after infection, glands 18 h after inoculation)?
**A.** The value was “ca. 4 log10”.

**Q.** And the “elimination of infection from glands” value ([4]; 400 μg lysobactin intramammary, hydrogel pH 4.7, cleared = less than 200 CFU/g)?
**A.** The value was “eliminates the infection from all infected glands”.

**Q.** And the “cidality (reduction of viable bacteria by at least 99.9%)” value [5]?
**A.** The value was “cidality”.

**Q.** What about the “cidality (reduction of viable bacteria by at least 99.9%)” value [6] of the same compound?
**A.** The value was “cidality”.

**Q.** What about the “reduction of mean CFU content” value ([7]; 15 μg lysobactin per gland) of the same compound?
**A.** Its value is “ca. 2.6 log10”.

**Q.** What does the source list for NC[C@@H]1O[C@H](O[C@@H]2[C@@H](CO)OC(O[C@@H]3[C@@H](O)[C@H](N)C[C@H](N)[C@H]3OC3O[C@H](CN)[C@@H](O)[C@H](O)[C@H]3N)[C@@H]2O)[C@H](N)[C@@H](O)[C@@H]1O (some centres unmarked) [neomycin trisulfate, reference compound]?
**A.** local clinical cure rate [2, 11]: 67%; microbiological cure rate [2, 11]: 100%; SCC recovery rate [2, 11]: 17%; local clinical cure rate [2, 12]: 100%; microbiological cure rate [2, 12]: 42%; SCC recovery rate [2, 12]: 50%; reduction of median CFU content ([4]; 1600 μg neomycin trisulfate intramammary, formulated in paraffin): ~2.5 log10; reduction of mean CFU content ([7]; 1600 μg neomycin trisulfate per gland): ~1.5 log10

**Q.** neomycin was tested. Which bacterial cell count [8] did it give?
**A.** The bacterial cell count was “below the detection limit”.

Source: patent US20220000969A1, “COMBINATIONS OF LYSOBACTIN AND AMINOGLYCOSIDES AGAINST DISEASES CAUSED BY GRAM-POSITIVE AND GRAM-NEGATIVE BACTERIA IN NON-HUMAN ANIMALS” (Bayer Animal Health GmbH, priority 2017, published 2022)
